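Cultured in 96-well plates, cells were exposed to test compound for 48 hours across five concentrations. GI50 marks 50% less growth. Definition used: TGI = concentration required for complete inhibition of growth.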
Tests used:
Assay in all cases: NCI anticancer screen, dose series, 48 h
SK-OV-3 ovarian = system: SK-OV-3 ovarian
COLO 205 colon = system: COLO 205 colon
ACHN renal = system: ACHN renal
SN12C renal = system: SN12C renal
RPMI-8226 leukemia = system: RPMI-8226 leukemia
PC-3 prostate = system: PC-3 prostate
SK-MEL-5 melanoma = system: SK-MEL-5 melanoma
NCI-H226 lung = system: NCI-H226 lung
HOP-62 NSCLC = system: HOP-62 NSCLC
NCI/ADR-RES ovarian = system: NCI/ADR-RES ovarian
MOLT-4 leukemia = system: MOLT-4 leukemia
HS 578T breast = system: HS 578T breast
SR leukemia = system: SR leukemia
SF-295 CNS = system: SF-295 CNS
DU-145 prostate = system: DU-145 prostate
NCI-H522 lung = system: NCI-H522 lung
HT29 colon = system: HT29 colon
K-562 leukemia = system: K-562 leukemia
BT-549 breast = system: BT-549 breast
SF-268 CNS = system: SF-268 CNS
NCI-H23 lung = system: NCI-H23 lung
A549 NSCLC = system: A549 NSCLC
HL-60(TB) leukemia = system: HL-60(TB) leukemia
SK-MEL-2 melanoma = system: SK-MEL-2 melanoma
UO-31 renal = system: UO-31 renal
SNB-75 CNS = system: SNB-75 CNS
786-0 renal = system: 786-0 renal
SK-MEL-28 melanoma = system: SK-MEL-28 melanoma
IGROV1 ovarian = system: IGROV1 ovarian
RXF 393 renal = system: RXF 393 renal
OVCAR-4 ovarian = system: OVCAR-4 ovarian
CAKI-1 renal = system: CAKI-1 renal
MALME-3M melanoma = system: MALME-3M melanoma
TK-10 renal = system: TK-10 renal
UACC-257 melanoma = system: UACC-257 melanoma
M14 melanoma = system: M14 melanoma
HCT-15 colon = system: HCT-15 colon
HOP-92 NSCLC = system: HOP-92 NSCLC
OVCAR-8 ovarian = system: OVCAR-8 ovarian
SW-620 colon = system: SW-620 colon
KM12 colon = system: KM12 colon
EKVX NSCLC = system: EKVX NSCLC
OVCAR-5 ovarian = system: OVCAR-5 ovarian
U251 CNS = system: U251 CNS
SNB-19 CNS = system: SNB-19 CNS
T-47D breast = system: T-47D breast
MDA-MB-435 = system: MDA-MB-435
CCRF-CEM leukemia = system: CCRF-CEM leukemia
MCF7 breast = system: MCF7 breast
UACC-62 melanoma = system: UACC-62 melanoma
NCI-H460 lung = system: NCI-H460 lung
HCC-2998 colon = system: HCC-2998 colon
A498 renal = system: A498 renal
LOX IMVI melanoma = system: LOX IMVI melanoma
OVCAR-3 ovarian = system: OVCAR-3 ovarian
MDA-MB-231 breast = system: MDA-MB-231 breast
HCT-116 colon = system: HCT-116 colon

## Nc1nc2c(c3ncccc13)C(c1cccc(Br)c1)Cc1ncccc1-2 (centres undefined)
SK-OV-3 ovarian
  GI50: 0.74 µM
  TGI: 17.4 µM
COLO 205 colon
  GI50: 0.665 µM
  TGI: 3.81 µM
ACHN renal
  GI50: 1.84 µM
  TGI: 34.8 µM
SN12C renal
  GI50: 3.51 µM
  TGI: 33.8 µM
RPMI-8226 leukemia
  GI50: 5.43 µM
  TGI: 48.7 µM
PC-3 prostate
  GI50: 0.791 µM
  TGI: 18.5 µM
SK-MEL-5 melanoma
  GI50: 0.576 µM
  TGI: 14.3 µM
NCI-H226 lung
  GI50: 18.8 µM
  TGI: 67.4 µM
HOP-62 NSCLC
  GI50: 0.88 µM
  TGI: 21.5 µM
NCI/ADR-RES ovarian
  GI50: 0.408 µM
  TGI: 15.1 µM
MOLT-4 leukemia
  GI50: 0.705 µM
  TGI: 31.8 µM
HS 578T breast
  GI50: 2.9 µM
  TGI: 23.5 µM
SR leukemia
  GI50: 0.377 µM
  TGI: 32.7 µM
SF-295 CNS
  GI50: 0.828 µM
  TGI: 12.4 µM
DU-145 prostate
  GI50: 1.13 µM
  TGI: 13.7 µM
NCI-H522 lung
  GI50: 0.503 µM
  TGI: 11.6 µM
HT29 colon
  GI50: 0.422 µM
  TGI: 11.4 µM
K-562 leukemia
  GI50: 0.539 µM
  TGI: > 100 µM
BT-549 breast
  GI50: 0.681 µM
  TGI: 6.16 µM
SF-268 CNS
  GI50: 0.808 µM
  TGI: 20.1 µM
NCI-H23 lung
  GI50: 4.52 µM
  TGI: 33 µM
A549 NSCLC
  GI50: 1.88 µM
  TGI: 39.2 µM
HL-60(TB) leukemia
  GI50: 0.291 µM
  TGI: 7.86 µM
SK-MEL-2 melanoma
  GI50: 0.871 µM
  TGI: 29.6 µM
UO-31 renal
  GI50: 2.6 µM
  TGI: 24.2 µM
SNB-75 CNS
  GI50: 0.3 µM
  TGI: 13.4 µM
786-0 renal
  GI50: 1.36 µM
  TGI: 12 µM
SK-MEL-28 melanoma
  GI50: 2.74 µM
  TGI: 22.6 µM
IGROV1 ovarian
  GI50: 2.64 µM
  TGI: 34.3 µM
RXF 393 renal
  GI50: 0.765 µM
  TGI: 4.06 µM
OVCAR-4 ovarian
  GI50: 7.13 µM
  TGI: 41 µM
CAKI-1 renal
  GI50: 0.749 µM
  TGI: 50.4 µM
MALME-3M melanoma
  GI50: 11.5 µM
  TGI: 31.4 µM
TK-10 renal
  GI50: 7.94 µM
  TGI: 56.2 µM
UACC-257 melanoma
  GI50: 18.2 µM
  TGI: 54.7 µM
M14 melanoma
  GI50: 0.509 µM
  TGI: 12.6 µM
HCT-15 colon
  GI50: 0.504 µM
  TGI: 15.1 µM
HOP-92 NSCLC
  GI50: 0.95 µM
  TGI: 15.5 µM
OVCAR-8 ovarian
  GI50: 5.24 µM
  TGI: 58 µM
SW-620 colon
  GI50: 0.479 µM
  TGI: 21.8 µM
KM12 colon
  GI50: 0.433 µM
  TGI: 13.1 µM
EKVX NSCLC
  GI50: 3.07 µM
  TGI: 80.8 µM
OVCAR-5 ovarian
  GI50: 7.84 µM
  TGI: 31.1 µM
U251 CNS
  GI50: 0.625 µM
  TGI: 12.7 µM
SNB-19 CNS
  GI50: 11.5 µM
  TGI: 25 µM
T-47D breast
  GI50: 0.524 µM
  TGI: 38.7 µM
MDA-MB-435
  GI50: 0.256 µM
  TGI: 0.761 µM
CCRF-CEM leukemia
  GI50: 0.726 µM
  TGI: 38.6 µM
MCF7 breast
  GI50: 0.37 µM
  TGI: 18.1 µM
UACC-62 melanoma
  GI50: 0.436 µM
  TGI: 17.4 µM
NCI-H460 lung
  GI50: 0.492 µM
  TGI: 11 µM
HCC-2998 colon
  GI50: 2.83 µM
  TGI: 13.7 µM
A498 renal
  GI50: 0.304 µM
  TGI: 1.6 µM
LOX IMVI melanoma
  GI50: 0.647 µM
  TGI: 15.9 µM
OVCAR-3 ovarian
  GI50: 0.28 µM
  TGI: 0.858 µM
MDA-MB-231 breast
  GI50: 1.65 µM
  TGI: 18 µM
HCT-116 colon
  GI50: 0.442 µM
  TGI: 11.4 µM
